# According to US20110098296A1, “Thiazole And Oxazole Kinase Inhibitors” (priority 2007, published 2011):
# What was measured:
# A375P F11s tumor cells = assay: Method C: Cell Growth Inhibition Assay (CellTiter-Glo), A375P F11s; format: cell-based; settings: Homo sapiens, 72 h, 3 days, 4-parameter fit
# Procedure, shortened: (§1)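 HT-29 and HN5 were grown in high-glucose DMEM with 10% FBS, SK-MEL-28 in EMEM with nonessential amino acids, sodium pyruvate and 10% FBS, and A375P F11s in RPMI with 10% FBS and sodium pyruvate. Cells (500/well) received 1:3 compound dilutions for 3 days, with CellTiter-Glo readout and 4-parameter IC50.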
# ErbB2 = target: T1, ErbB2 (Homo sapiens, UniProt P04626); assay: ErbB-2 substrate phosphorylation assay (HTRF); format: biochemical; settings: Method (A): Enzyme Mix incubated with compound at 20° C. for 1 hr, reaction started by adding Substrate Mix
# T1 construct: made in house; host or cells: baculovirus expression system
# Procedure, shortened: (§2)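 Baculovirus-expressed kinase (0.8 nM EGFR or 10 nM ErbB2 in enzyme mix) with Peptide C 0.8 μM and ATP 20 μM (substrate-mix levels), MOPS pH 7.5, MnCl2; 90 min, 20 °C, HTRF anti-phosphotyrosine. Method A adds 1 h enzyme–compound preincubation; B none. pIC50, final compound 0.00027–47.6 μM.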
# SK-MEL-28 tumor cells = assay: Method C: Cell Growth Inhibition Assay (CellTiter-Glo), SK-MEL-28; format: cell-based; settings: Homo sapiens, SK-MEL-28, 72 h, 3 days, 4-parameter fit
# Procedure, shortened: as §1
# HT-29 tumor cells = assay: Method C: Cell Growth Inhibition Assay (CellTiter-Glo), HT-29; format: cell-based; settings: Homo sapiens, HT-29, 72 h, 3 days, 4-parameter fit
# Procedure, shortened: as §1
# BT474 tumor cells = assay: Method C: Cell Growth Inhibition Assay (CellTiter-Glo), BT474; format: cell-based; settings: Homo sapiens, BT-474, 72 h, 3 days, 4-parameter fit
# SK-MEL-3 tumor cells = assay: Method C: Cell Growth Inhibition Assay (CellTiter-Glo), SK-MEL-3; format: cell-based; settings: Homo sapiens, SK-MEL3, 72 h, 3 days, 4-parameter fit
# Procedure, shortened: (§3)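 Growth inhibition is expressed as the concentration giving 50% inhibition relative to vehicle controls, derived from a 4-parameter fit. Tumor cells plated at 500 per well were exposed for 3 days to compound (0.2% DMSO) before total ATP was quantified by CellTiter-Glo.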
# EGFR = target: T2, EGFR (Homo sapiens, UniProt P00533); assay: EGFR substrate phosphorylation assay (HTRF); format: biochemical; settings: Method (A): Enzyme Mix incubated with compound at 20° C. for 1 hr, reaction started by adding Substrate Mix
# T2 construct: made in house; host or cells: baculovirus expression system
# Procedure, shortened: as §2
# Colo205 tumor cells = assay: Method C: Cell Growth Inhibition Assay (CellTiter-Glo), Colo205; format: cell-based; settings: Homo sapiens, COLO 205, 72 h, 3 days, 4-parameter fit
# Procedure, shortened: as §3
# HN5 tumor cells = assay: Method C: Cell Growth Inhibition Assay (CellTiter-Glo), HN5; format: cell-based; settings: Homo sapiens, 72 h, 3 days, 4-parameter fit
# Procedure, shortened: as §1
# T2 sequence (P00533 25-1210): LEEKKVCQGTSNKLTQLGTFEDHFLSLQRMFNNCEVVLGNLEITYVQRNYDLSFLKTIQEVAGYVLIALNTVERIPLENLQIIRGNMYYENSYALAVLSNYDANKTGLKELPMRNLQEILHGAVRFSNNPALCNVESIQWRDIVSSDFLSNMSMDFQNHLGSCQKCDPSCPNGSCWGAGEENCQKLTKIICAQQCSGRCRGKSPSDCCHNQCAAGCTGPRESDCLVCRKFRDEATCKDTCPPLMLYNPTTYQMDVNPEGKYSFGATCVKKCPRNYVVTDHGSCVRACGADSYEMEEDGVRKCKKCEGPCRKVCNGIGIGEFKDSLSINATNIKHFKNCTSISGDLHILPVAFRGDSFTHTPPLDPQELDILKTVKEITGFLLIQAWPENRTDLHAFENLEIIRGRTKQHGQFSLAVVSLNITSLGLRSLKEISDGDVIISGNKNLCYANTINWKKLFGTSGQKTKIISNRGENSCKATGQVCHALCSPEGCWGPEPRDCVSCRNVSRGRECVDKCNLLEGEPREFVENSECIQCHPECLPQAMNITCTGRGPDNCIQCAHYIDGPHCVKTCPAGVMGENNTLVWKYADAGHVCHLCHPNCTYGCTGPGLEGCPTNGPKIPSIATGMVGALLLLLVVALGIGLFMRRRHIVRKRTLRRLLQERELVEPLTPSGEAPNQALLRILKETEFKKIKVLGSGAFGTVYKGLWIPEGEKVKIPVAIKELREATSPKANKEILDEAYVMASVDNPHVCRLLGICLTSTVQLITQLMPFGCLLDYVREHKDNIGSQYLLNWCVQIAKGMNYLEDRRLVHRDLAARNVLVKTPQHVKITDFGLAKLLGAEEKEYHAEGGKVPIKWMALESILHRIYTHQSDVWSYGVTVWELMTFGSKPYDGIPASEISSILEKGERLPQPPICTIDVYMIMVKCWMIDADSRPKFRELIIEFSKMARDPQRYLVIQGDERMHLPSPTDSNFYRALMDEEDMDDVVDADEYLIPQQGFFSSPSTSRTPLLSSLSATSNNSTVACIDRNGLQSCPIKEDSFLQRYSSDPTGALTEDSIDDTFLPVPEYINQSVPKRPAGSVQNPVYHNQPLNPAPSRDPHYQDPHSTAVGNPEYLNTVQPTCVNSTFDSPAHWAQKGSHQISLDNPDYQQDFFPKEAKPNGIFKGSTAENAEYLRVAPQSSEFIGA
# T1 sequence (P04626 23-1255): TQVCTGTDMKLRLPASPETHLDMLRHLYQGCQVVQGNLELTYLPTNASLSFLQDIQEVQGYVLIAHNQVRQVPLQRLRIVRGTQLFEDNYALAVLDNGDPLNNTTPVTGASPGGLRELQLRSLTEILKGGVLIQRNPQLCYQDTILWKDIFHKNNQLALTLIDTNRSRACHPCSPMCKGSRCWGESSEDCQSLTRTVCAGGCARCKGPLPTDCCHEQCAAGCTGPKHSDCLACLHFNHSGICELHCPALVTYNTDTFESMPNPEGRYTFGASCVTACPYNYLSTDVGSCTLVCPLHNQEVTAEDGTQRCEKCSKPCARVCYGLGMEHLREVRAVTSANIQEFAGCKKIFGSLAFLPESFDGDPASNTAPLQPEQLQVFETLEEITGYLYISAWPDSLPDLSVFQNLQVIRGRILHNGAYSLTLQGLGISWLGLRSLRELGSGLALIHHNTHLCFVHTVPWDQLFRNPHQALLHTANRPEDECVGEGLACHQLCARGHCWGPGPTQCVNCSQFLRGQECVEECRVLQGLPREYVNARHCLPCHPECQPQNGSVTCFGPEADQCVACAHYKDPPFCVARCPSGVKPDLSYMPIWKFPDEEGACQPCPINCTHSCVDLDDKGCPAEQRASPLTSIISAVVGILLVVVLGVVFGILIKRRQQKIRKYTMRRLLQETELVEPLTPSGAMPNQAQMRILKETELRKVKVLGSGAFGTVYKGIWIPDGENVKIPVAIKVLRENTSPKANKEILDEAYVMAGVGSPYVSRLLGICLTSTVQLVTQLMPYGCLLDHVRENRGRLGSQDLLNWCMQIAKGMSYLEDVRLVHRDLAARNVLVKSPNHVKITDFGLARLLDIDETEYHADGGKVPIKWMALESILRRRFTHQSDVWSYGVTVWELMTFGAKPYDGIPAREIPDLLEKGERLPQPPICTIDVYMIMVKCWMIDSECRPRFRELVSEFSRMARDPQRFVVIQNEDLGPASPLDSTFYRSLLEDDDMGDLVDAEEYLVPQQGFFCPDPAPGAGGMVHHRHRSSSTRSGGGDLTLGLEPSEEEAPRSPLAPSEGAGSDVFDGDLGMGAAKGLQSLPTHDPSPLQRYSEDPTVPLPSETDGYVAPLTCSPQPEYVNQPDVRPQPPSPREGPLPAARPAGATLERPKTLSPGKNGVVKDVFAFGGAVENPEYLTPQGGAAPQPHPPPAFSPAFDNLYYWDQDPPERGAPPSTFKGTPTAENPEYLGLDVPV
SMILES,IC50 (A375P F11s tumor cells),IC50 (ErbB2),IC50 (SK-MEL-28 tumor cells),IC50 (HT-29 tumor cells),IC50 (BT474 tumor cells),IC50 (SK-MEL-3 tumor cells),IC50 (EGFR),IC50 (Colo205 tumor cells),IC50 (HN5 tumor cells)
"CN(C)CCOc1cccc(Nc2nccc(-c3scnc3-c3cccc(NC(=O)Cc4cccs4)c3)n2)c1 [Example 84, N-[3-(5-{2-[(3-{[2-(Dimethylamino)ethyl]oxy}phenyl)amino]-4-pyrimidinyl}-1,3-thiazol-4-yl)phenyl]-2-(2-thienyl)acetamide]",> 1000 nM,< 100 nM,> 1000 nM,> 1000 nM,> 1000 nM,> 1000 nM,< 100 nM,> 1000 nM,> 1000 nM
"Cc1nc(-c2cccc(NC(=O)c3c(F)cccc3F)c2)c(-c2ccnc(Nc3cccc(CN4CCCC4)c3)n2)s1 [Example 104, 2,6-Difluoro-N-{3-[2-methyl-5-(2-{[3-(1-pyrrolidinylmethyl)phenyl]amino}-4-pyrimidinyl)-1,3-thiazol-4-yl]phenyl}benzamide]",100 to 1000 nM,< 100 nM,> 1000 nM,100 to 1000 nM,< 100 nM,100 to 1000 nM,< 100 nM,100 to 1000 nM,100 to 1000 nM
"Cc1nc(-c2cccc(NC(=O)c3c(F)cccc3F)c2)c(-c2ccnc(Nc3ccc(OC4CCNCC4)c(F)c3)n2)s1 [Example 107, 2,6-DUDuoro-N-{3-[5-(2-{[3-fluoro-4-(4-piperidinyloxy)phenyl]amino}-4-pyrimidinyl)-2-methyl-1,3-thiazol-4-yl]phenyl}benzamide]",100 to 1000 nM,< 100 nM,100 to 1000 nM,100 to 1000 nM,< 100 nM,100 to 1000 nM,< 100 nM,100 to 1000 nM,< 100 nM
"CC(=O)N1CCC(Oc2ccc(Nc3nccc(-c4sc(C)nc4-c4cccc(NC(=O)c5c(F)cccc5F)c4)n3)cc2F)CC1 [Example 109, N-(3-{5-[2-({4-[(1-Acetyl-4-piperidinyl)oxy]-3-fluorophenyl}amino)-4-pyrimidinyl]-2-methyl-1,3-thiazol-4-yl}phenyl)-2,6-difluorobenzamide]",> 1000 nM,< 100 nM,> 1000 nM,> 1000 nM,100 to 1000 nM,> 1000 nM,< 100 nM,> 1000 nM,100 to 1000 nM
"CCc1nc(-c2cccc(NC(=O)c3c(F)cccc3F)c2)c(-c2ccnc(Nc3ccc(OCCN4CCCC4)c(Cl)c3)n2)s1 [Example 113, N-[3-(5-{2-[(3-Chloro-4-{[2-(1-pwrolidinyl)ethyl]oxy}phenyl)amino]-4-pyrimidinyl}-2-ethyl-1,3-thiazol-4-yl)phenyl]-2,6-difluorobenzamide]",100 to 1000 nM,< 100 nM,> 1000 nM,100 to 1000 nM,100 to 1000 nM,100 to 1000 nM,< 100 nM,> 1000 nM,100 to 1000 nM
"CCc1nc(-c2cccc(NC(=O)c3c(F)cccc3F)c2)c(-c2ccnc(Nc3ccc(OCCN(C)C)c(Cl)c3)n2)s1 [Example 114, N-[3-(5-{2-[(3-Chloro-4-{[2-(dimethylamino)ethyl]oxy}phenyl)amino]-4-pyrimidinyl}-2-ethyl-1,3-thiazol-4-yl)phenyl]-2,6-difluorobenzamide]",100 to 1000 nM,< 100 nM,100 to 1000 nM,100 to 1000 nM,100 to 1000 nM,> 1000 nM,< 100 nM,100 to 1000 nM,100 to 1000 nM
"CC(C)c1nc(-c2cccc(NC(=O)c3c(F)cccc3F)c2)c(-c2ccnc(Nc3ccc(OCCN4CCCC4)c(Cl)c3)n2)s1 [Example 121, N-{3-[5-{2-[(3-chloro-4-{[2-(1-pyrrolidinyl)-ethyl]oxy}phenyl)amino]-4-pyrimidinyl}-2-(1-methylethyl)-1,3-thiazol-4-yl]phenyl}-2,6-difluorobenzamide]",100 to 1000 nM,< 100 nM,100 to 1000 nM,100 to 1000 nM,100 to 1000 nM,100 to 1000 nM,< 100 nM,100 to 1000 nM,100 to 1000 nM

# Other lines, results leading:
IC50 (A375P F11s tumor cells),IC50 (ErbB2),IC50 (SK-MEL-28 tumor cells),IC50 (HT-29 tumor cells),IC50 (BT474 tumor cells),IC50 (SK-MEL-3 tumor cells),IC50 (EGFR),IC50 (Colo205 tumor cells),IC50 (HN5 tumor cells),SMILES
100 to 1000 nM,< 100 nM,> 1000 nM,100 to 1000 nM,< 100 nM,> 1000 nM,< 100 nM,100 to 1000 nM,100 to 1000 nM,"CN(C)Cc1cccc(Nc2nccc(-c3scnc3-c3cccc(NC(=O)c4c(F)cccc4F)c3)n2)c1 [Example 90, N-(3-{5-[2-({3-[(Dimethylamino)methyl]-phenyl}amino)-4-pyrimidinyl]-1,3-thiazol-4-yl}phenyl)-2,6-difluorobenzamide-formic acid]"
100 to 1000 nM,< 100 nM,100 to 1000 nM,100 to 1000 nM,< 100 nM,100 to 1000 nM,< 100 nM,100 to 1000 nM,< 100 nM,"COc1ccc(Nc2nccc(-c3scnc3-c3cccc(NC(=O)c4c(F)cccc4F)c3)n2)cc1N1CCN(C)CC1 [Example 93, 2,6-Difluoro-N-{3-[5-(2-{[4-(methyloxy)-3-(4-methyl-1-piperazinyl)phenyl]amino}-4-pyrimidinyl)-1,3-thiazol-4-yl]phenyl}benzamide]"
> 1000 nM,< 100 nM,> 1000 nM,100 to 1000 nM,< 100 nM,100 to 1000 nM,< 100 nM,100 to 1000 nM,< 100 nM,"O=C(Nc1cccc(-c2ncsc2-c2ccnc(Nc3cccc(CN4CCCC4)c3)n2)c1)c1c(F)cccc1F [Example 94, 2,6-Difluoro-N-{3-[5-(2-{[3-(1-pyrrolidinylmethyl)phenyl]amino}-4-pyrimidinyl)-1,3-thiazol-4-yl]phenyl}benzamide]"
100 to 1000 nM,< 100 nM,> 1000 nM,100 to 1000 nM,< 100 nM,> 1000 nM,< 100 nM,> 1000 nM,< 100 nM,"NS(=O)(=O)CCc1cccc(Nc2nccc(-c3scnc3-c3cccc(NC(=O)c4c(F)cccc4F)c3)n2)c1 [Example 95, N-(3-{5-[2-({3-[2-(Aminosulfonyl)ethyl]phenyl}amino)-4-pyrimidinyl]-1,3-thiazol-4-yl}phenyl)-2,6-difluorobenzamide]"
100 to 1000 nM,< 100 nM,> 1000 nM,100 to 1000 nM,< 100 nM,> 1000 nM,< 100 nM,100 to 1000 nM,< 100 nM,"Cc1nc(-c2cccc(NC(=O)c3c(F)cccc3F)c2)c(-c2ccnc(Nc3ccc(OCCN(C)C)c(F)c3)n2)s1 [Example 105, N-[3-(5-{2-[(4-{[2-(Dimethylamino)ethyl]oxy}-3-fluorophenyl)amino]-4-pyrimidinyl}-2-methyl-1,3-thiazol-4-yl)phenyl]-2,6-difluorobenzamide]"
100 to 1000 nM,< 100 nM,> 1000 nM,100 to 1000 nM,< 100 nM,> 1000 nM,< 100 nM,100 to 1000 nM,100 to 1000 nM,"Cc1nc(-c2cccc(NC(=O)c3c(F)cccc3F)c2)c(-c2ccnc(Nc3ccc(OC4CCN(C)CC4)c(F)c3)n2)s1 [Example 108, 2,6-Difluoro-N-(3-{5-[2-({3-fluoro-4-[(1-methyl-4-piperidinyl)oxy]phenyl}amino)-4-pyrimidinyl]-2-methyl-1,3-thiazol-4-yl}phenyl)benzamide]"
100 to 1000 nM,< 100 nM,100 to 1000 nM,100 to 1000 nM,< 100 nM,100 to 1000 nM,< 100 nM,100 to 1000 nM,100 to 1000 nM,"Cc1nc(-c2cccc(NC(=O)c3c(F)cccc3F)c2)c(-c2ccnc(Nc3ccc(OC4CCN(C(C)C)CC4)c(F)c3)n2)s1 [Example 111, 2,6-Difluoro-N-[3-(5-{2-[(3-fluoro-4-{[1-(1-methylethyl)-4-piperidinyl]oxy}phenyl)amino]-4-pyrimidinyl}-2-methyl-1,3-thiazol-4-yl)phenyl]benzamide]"
100 to 1000 nM,< 100 nM,> 1000 nM,100 to 1000 nM,< 100 nM,> 1000 nM,< 100 nM,100 to 1000 nM,100 to 1000 nM,"CCc1nc(-c2cccc(NC(=O)c3c(F)cccc3F)c2)c(-c2ccnc(Nc3ccc(OCCN(C)C)c(F)c3)n2)s1 [Example 112, N-[3-(5-{2-[(4-{[2-(Dimethylamino)ethyl]oxy}-3-fluorophenyl)amino]-4-pyrimidinyl}-2-ethyl-1,3-thiazol-4-yl)phenyl]-2,6-difluorobenzamide]"
> 1000 nM,< 100 nM,> 1000 nM,> 1000 nM,100 to 1000 nM,> 1000 nM,< 100 nM,100 to 1000 nM,100 to 1000 nM,"CN1CCc2ccc(Nc3nccc(-c4sc(C5CCNCC5)nc4-c4cccc(NC(=O)c5c(F)cccc5F)c4)n3)cc2C1 [Example 124, 2,6-Difluoro-N-{3-[5-{2-[(2-methyl-1,2,3,4-tetrahydro-7-isoquinolinyl)amino]-4-pyrimidinyl}-2-(4-piperidinyl)-1,3-thiazol-4-yl]phenyl}benzamide]"
